Columns and labels:
[1] = tested on: Phosphorylation of ERK1/2 in A549 cells; test: Phospho-ERK1/2 MSD assay in A549 cells; assay type: cell-based; settings: Homo sapiens, A549, 2 h, read-out: p-ERK IC50 (2 h, A549; μM), 2 h compound treatment, A549 cells, EGF stimulated
Summary of the method: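 Readout: MSD phospho-ERK1/2 signal after compound (2 or 4 h) and 10 min EGF stimulation at 10 ng/mL.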

[2] = molecular target: GDP-bound KRAS protein (aa 1-169), containing both G12C and C118A amino acid substitutions (Homo sapiens (Human), UniProt P01116, C118A/G12C); test: Coupled nucleotide exchange assay (SOS-mediated nucleotide exchange, AlphaScreen); assay type: biochemical; settings: read-out: Coupled exchange IC50 (5 min; μM); 5 min compound pre-incubation
[3] = tested on: Phosphorylation of ERK1/2 in MIA PaCa-2 cells; test: Phospho-ERK1/2 MSD assay in MIA PaCa-2 cells; assay type: cell-based; settings: Homo sapiens, MIA PaCa-2, 2 h, read-out: p-ERK IC50 (2 h, MiaPaCa-2; μM), 2 h compound treatment, MIA PaCa-2 cells, EGF stimulated
Summary of the method: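 Phospho-ERK1/2 measured by MSD electrochemiluminescence kit in RIPA lysates of MIA PaCa-2 cells. Cells were treated with compound titrations for 2 or 4 h at 37 °C, 5% CO2, followed by a 10 min pulse of 10 ng/mL EGF.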

Sequence of GDP-bound KRAS protein (aa 1-169), containing both G12C and C118A amino acid substitutions (P01116 other isoform, or with tags, fused parts or gaps G12C/C118A): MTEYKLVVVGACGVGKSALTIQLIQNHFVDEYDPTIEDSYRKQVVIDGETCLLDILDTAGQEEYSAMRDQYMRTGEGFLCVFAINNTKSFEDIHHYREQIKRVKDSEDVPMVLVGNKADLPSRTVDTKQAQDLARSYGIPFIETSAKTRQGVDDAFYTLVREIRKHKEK

| SMILES | IC50 [1] | IC50 [2] | IC50 [3] |
| --- | --- | --- | --- |
| C=CC(=O)N1C[C@H](C)N(c2nc(=O)n(-c3c(C)ccnc3C(C)C)c3nc(-c4cc(O)ccc4F)c(Cl)cc23)C[C@H]1C (atropisomer, axis not shown; (M)) [Example 92-34, (M)-6-Chloro-4-[(2S,5R)-2,5-dimethyl-4-prop-2-enoyl-piperazin-1-yl]-7-(2-fluoro-5-hydroxy-phenyl)-1-(2-isopropyl-4-methyl-3-pyridyl)pyrido [2,3-d]pyrimidin-2-one] | > 7.5 µM | 0.054 µM | 0.06 µM |
| C=CC(=O)N1C[C@H](C)N(c2nc(=O)n(-c3c(C)ccnc3C(C)C)c3nc(-c4ccccc4[N+](=O)[O-])c(Cl)cc23)C[C@H]1C (atropisomer, axis not shown; (M)) [Example 92-36, (M)-6-Chloro-4-[(2S,5R)-2,5-dimethyl-4-prop-2-enoyl-piperazin-1-yl]-1-(2-isopropyl-4-methyl-3-pyridyl)-7-(2-nitrophenyl) pyrido[2,3-d]pyrimidin-2-one] | 1.87 µM | 0.275 µM | 0.133 µM |
| C=CC(=O)N1C[C@H](C)N(c2nc(=O)n(-c3c(C)ccnc3C(C)C)c3nc(-c4cc(Br)ccc4F)c(Cl)cc23)C[C@H]1C (atropisomer, axis not shown; (M)) [Example 92-37, (M)-7-(5-Bromo-2-fluoro-phenyl)-6-chloro-4-[(2S,5R)-2,5-dimethyl-4-prop-2-enoyl-piperazin-1-yl]-1-(2-isopropyl-4-methyl-3-pyridyl)pyrido [2,3-d]pyrimidin-2-one] | > 7.5 µM | 0.048 µM | 0.06 µM |
| C=CC(=O)N1C[C@H](C)N(c2nc(=O)n(-c3c(C)ccnc3C(C)C)c3nc(-c4cc(C#CC)ccc4F)c(Cl)cc23)C[C@H]1C (atropisomer, axis not shown; (M)) [Example 92-39, (M)-6-Chloro-4-[(2S,5R)-2,5-dimethyl-4-prop-2-enoyl-piperazin-1-yl]-7-(2-fluoro-5-prop-1-ynyl-phenyl)-1-(2-isopropyl-4-methyl-3-pyridyl)pyrido [2,3-d]pyrimidin-2-one] | > 7.5 µM | 0.032 µM | 0.145 µM |
| C=CC(=O)N1C[C@H](C)N(c2nc(=O)n(-c3c(C)ccnc3C(C)C)c3nc(-c4c(F)cccc4C#N)c(Cl)cc23)C[C@H]1C (atropisomer, axis not shown; (M)) [Example 92-40, (M)-2-[6-Chloro-4-[(2S,5R)-2,5-dimethyl-4-prop-2-enoyl-piperazin-1-yl]-1-(2-isopropyl-4-methyl-3-pyridyl)-2-oxo-pyrido[2,3-d]pyrimidin-7-yl]-3-fluoro-benzonitrile] | > 7.5 µM | 0.244 µM | 0.14 µM |
| C=CC(=O)N1C[C@H](C)N(c2nc(=O)n(-c3c(C)ccnc3C(C)C)c3nc(-c4ccccc4C(C)=O)c(Cl)cc23)C[C@H]1C (atropisomer, axis not shown; (M)) [Example 92-41, (M)-7-(2-Acetylphenyl)-6-chloro-4-[(2S,5R)-2,5-dimethyl-4-prop-2-enoyl-piperazin-1-yl]-1-(2-isopropyl-4-methyl-3-pyridyl)pyrido [2,3-d]pyrimidin-2-one] | 3.75 µM | 0.117 µM | 0.075 µM |
| C=CC(=O)N1C[C@H](C)N(c2nc(=O)n(-c3c(C)ccnc3C(C)C)c3nc(-c4ccccc4)c(Cl)cc23)C[C@H]1C (atropisomer, axis not shown; (M)) [Example 92-42, (M)-6-Chloro-4-[(2S,5R)-2,5-dimethyl-4-prop-2-enoyl-piperazin-1-yl]-1-(2-isopropyl-4-methyl-3-pyridyl)-7-phenyl-pyrido[2,3-d]pyrimidin-2-one] | > 7.5 µM | 0.117 µM | 0.08 µM |
| C=CC(=O)N1C[C@H](C)N(c2nc(=O)n(-c3c(C)ccnc3C(C)C)c3nc(-c4cc(Cl)ccc4F)c(Cl)cc23)C[C@H]1C (atropisomer, axis not shown; (M)) [Example 92-44, (M)-6-Chloro-7-(5-chloro-2-fluoro-phenyl)-4-[(2S,5R)-2,5-dimethyl-4-prop-2-enoyl-piperazin-1-yl]-1-(2-isopropyl-4-methyl-3-pyridyl)pyrido [2,3-d]pyrimidin-2-one] | > 7.5 µM | 0.04 µM | 0.098 µM |
| C=CC(=O)N1C[C@H](C)N(c2nc(=O)n(-c3c(C)ccnc3C(C)C)c3nc(-c4ccccc4C)c(Cl)cc23)C[C@H]1C (atropisomer, axis not shown; (M)) [Example 92-45, (M)-6-Chloro-4-[(2S,5R)-2,5-dimethyl-4-prop-2-enoyl-piperazin-1-yl]-1-(2-isopropyl-4-methyl-3-pyridyl)-7-(o-tolyl)pyrido[2,3-d]pyrimidin-2-one] | > 7.5 µM | 0.025 µM | 0.023 µM |
| C=CC(=O)N1C[C@H](C)N(c2nc(=O)n(-c3c(C)ccnc3C(C)C)c3nc(-c4cccc(Cl)c4F)c(Cl)cc23)C[C@H]1C (atropisomer, axis not shown; (M)) [Example 92-46, (M)-6-Chloro-7-(3-chloro-2-fluoro-phenyl)-4-[(2S,5R)-2,5-dimethyl-4-prop-2-enoyl-piperazin-1-yl]-1-(2-isopropyl-4-methyl-3-pyridyl)pyrido [2,3-d]pyrimidin-2-one] | > 7.5 µM | 0.023 µM | 0.032 µM |
| C#Cc1ccccc1-c1nc2c(cc1Cl)c(N1C[C@@H](C)N(C(=O)C=C)C[C@@H]1C)nc(=O)n2-c1c(C)ccnc1C(C)C (atropisomer, axis not shown; (M)) [Example 92-47, (M)-6-Chloro-4-[(2S,5R)-2,5-dimethyl-4-prop-2-enoyl-piperazin-1-yl]-7-(2-ethynylphenyl)-1-(2-isopropyl-4-methyl-3-pyridyl)pyrido [2,3-d]pyrimidin-2-one] | > 7.5 µM | 0.057 µM | 0.049 µM |
| C#Cc1cccc(-c2nc3c(cc2Cl)c(N2C[C@@H](C)N(C(=O)C=C)C[C@@H]2C)nc(=O)n3-c2c(C)ccnc2C(C)C)c1 (atropisomer, axis not shown; (M)) [Example 92-48, (M)-6-Chloro-4-[(2S,5R)-2,5-dimethyl-4-prop-2-enoyl-piperazin-1-yl]-7-(3-ethynylphenyl)-1-(2-isopropyl-4-methyl-3-pyridyl)pyrido [2,3-d]pyrimidin-2-one] | > 7.5 µM | 0.247 µM | 0.365 µM |
| C=CC(=O)N1C[C@H](C)N(c2nc(=O)n(-c3c(C)ccnc3C(C)C)c3nc(-c4cccc(C#CC)c4)c(Cl)cc23)C[C@H]1C (atropisomer, axis not shown; (M)) [Example 92-49, (M)-6-Chloro-4-[(2S,5R)-2,5-dimethyl-4-prop-2-enoyl-piperazin-1-yl]-1-(2-isopropyl-4-methyl-3-pyridyl)-7-(3-prop-1-ynylphenyl) pyrido[2,3-d]pyrimidin-2-one] | > 7.5 µM | 0.123 µM | 0.328 µM |
| C=CC(=O)N1C[C@H](C)N(c2nc(=O)n(-c3c(C)ccnc3C(C)C)c3nc(-c4ccccc4Cl)c(Cl)cc23)C[C@H]1C (atropisomer, axis not shown; (M)) [Example 92-51, (M)-6-Chloro-7-(2-chlorophenyl)-4-[(2S,5R)-2,5-dimethyl-4-prop-2-enoyl-piperazin-1-yl]-1-(2-isopropyl-4-methyl-3-pyridyl)pyrido [2,3-d]pyrimidin-2-one] | > 7.5 µM | 0.033 µM | 0.03 µM |
| C=CC(=O)N1C[C@H](C)N(c2nc(=O)n(-c3c(C)ccnc3C(C)C)c3nc(-c4cccc(F)c4)c(Cl)cc23)C[C@H]1C (atropisomer, axis not shown; (M)) [Example 92-52, (M)-6-Chloro-4-[(2S,5R)-2,5-dimethyl-4-prop-2-enoyl-piperazin-1-yl]-7-(3-fluorophenyl)-1-(2-isopropyl-4-methyl-3-pyridyl)pyrido [2,3-d]pyrimidin-2-one] | > 7.5 µM | 0.161 µM | 0.196 µM |
| C=CC(=O)N1C[C@H](C)N(c2nc(=O)n(-c3c(C)ccnc3C(C)C)c3nc(-c4cccc(C)c4)c(Cl)cc23)C[C@H]1C (atropisomer, axis not shown; (M)) [Example 92-53, (M)-6-Chloro-4-[(2S,5R)-2,5-dimethyl-4-prop-2-enoyl-piperazin-1-yl]-1-(2-isopropyl-4-methyl-3-pyridyl)-7-(m-tolyl)pyrido[2,3-d]pyrimidin-2-one] | > 7.5 µM | 0.135 µM | 0.309 µM |
| C=CC(=O)N1C[C@H](C)N(c2nc(=O)n(-c3c(C)ccnc3C(C)C)c3nc(-c4cccc(Cl)c4)c(Cl)cc23)C[C@H]1C (atropisomer, axis not shown; (M)) [Example 92-54, (M)-6-Chloro-7-(3-chlorophenyl)-4-[(2S,5R)-2,5-dimethyl-4-prop-2-enoyl-piperazin-1-yl]-1-(2-isopropyl-4-methyl-3-pyridyl)pyrido [2,3-d]pyrimidin-2-one] | > 7.5 µM | 0.169 µM | 0.217 µM |
| C=CC(=O)N1C[C@H](C)N(c2nc(=O)n(-c3c(C)ccnc3C(C)C)c3nc(-c4ccccc4CC)c(Cl)cc23)C[C@H]1C (atropisomer, axis not shown; (M)) [Example 92-55, (M)-6-Chloro-4-[(2S,5R)-2,5-dimethyl-4-prop-2-enoyl-piperazin-1-yl]-7-(2-ethylphenyl)-1-(2-isopropyl-4-methyl-3-pyridyl)pyrido [2,3-d]pyrimidin-2-one] | > 7.5 µM | 0.021 µM | 0.018 µM |
